One data set deals with PPC-1 xenograft tumors. As to conditions: for tumor response compared with control group in first week: i.p. three times in first week at 50 mg/kg.
For data set [1] the following is noted: administered orally; cited from earlier work.
In data set [2] the test system is B6-Bcl-2 transgenic mice (B-cells overexpress human Bcl-2). Description: B6-Bcl-2 transgenic mouse spleen weight study. Particulars: for tolerability / toxicity of treated mice: 60 μmol/kg i.p., single injection; for in vivo activity compared to 6a: dose of 60 μmol/kg (Figure 3A); for tolerability of treated mice: i.p. at 30 μmol/kg.
Data set [3] in a line: In vitro plasma stability. The data set is classed as in vitro ADME.
A further data set deals with primary CLL cells. Description: Annexin-V apoptosis assay, primary CLL cells. The data set is classed as cell-based, human. As to conditions: one day Annexin-V apoptosis assay.
Data set [4] concerns B6-Bcl-2 transgenic mice (B-cells overexpress human Bcl-2). Particulars: ip, 60 umol/kg.
Another data set has as its target Bcl-XL (Homo sapiens, UniProt Q07817). As to the kind of experiment: 2D [15N,1H]-HSQC binding to 15N-labeled Bcl-XL. Particulars: ligand/protein ratio of 1:1.
The next data set concerns the target GST–Bcl-XL ΔTM protein (Homo sapiens, UniProt Q07817). Description: Fluorescence polarization assay. The format is binding.
A further data set deals with BP3 cell line. Description: Annexin V-FITC and propidium iodide apoptosis assay, BP3.

Data on eleven molecules can be found in PMC3059195 (Journal of medicinal chemistry, 2010).

pIC50: −log10 of the molar value. Read-outs that look alike come from different tables or passages of the source. Where only a bound is given, the exact number is not on record here.

Bcl-XL, sequence (Q07817 whole entry): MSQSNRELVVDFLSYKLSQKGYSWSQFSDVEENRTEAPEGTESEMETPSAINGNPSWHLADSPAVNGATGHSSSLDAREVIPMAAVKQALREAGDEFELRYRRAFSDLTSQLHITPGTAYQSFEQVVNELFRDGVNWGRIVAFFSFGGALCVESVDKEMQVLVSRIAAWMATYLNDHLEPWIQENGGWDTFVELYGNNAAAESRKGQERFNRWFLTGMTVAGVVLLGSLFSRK
GST–Bcl-XL ΔTM protein, sequence (Q07817 1-211 limits assumed, stated change not applied): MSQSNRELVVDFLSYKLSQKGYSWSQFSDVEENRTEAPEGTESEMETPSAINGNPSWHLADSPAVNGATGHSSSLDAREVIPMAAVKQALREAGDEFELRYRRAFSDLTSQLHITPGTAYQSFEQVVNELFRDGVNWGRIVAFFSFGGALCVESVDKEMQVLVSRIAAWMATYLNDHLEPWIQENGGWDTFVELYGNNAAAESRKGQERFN

As for `Cc1cc2c(C(C)C)c(O)c(O)c(C=O)c2c(O)c1-c1c(C)cc2c(C(C)C)c(O)c(O)c(C=O)c2c1O` [Compound 1, 1,1′,6,6′,7,7′-Hexahydroxy-5,5′-diisopropyl-3,3′-dimethyl-2,2′-binaphthyl-8,8′-dicarboxaldehyde], the “survival of treated mice in first week” value in the data set on PPC-1 xenograft tumors (25 mg/kg, i.p.) is reported as “died”.

For the molecule `CC1=C(C2=C(C)C(=O)c3c(cc(O)c(O)c3C(C)C)C2=O)C(=O)c2cc(O)c(O)c(C(C)C)c2C1=O` [Compound 6a, 6,6′,7,7′-tetrahydroxy-5,5′-diisopropyl-3,3′-dimethyl-2,2′-binaphthyl-1,1′,4,4′-tetraone], the “maximum tolerated dose (MTD)” value in [1] was “above 240 mg/kg”. Moreover, in [2] (60 μmol/kg ip, maximum spleen shrinkage no more than 50%), the “percent of maximum reduction in spleen weight (biological activity)” value was determined as 40%. For the same molecule, the “weight loss in first week” value with PPC-1 xenograft tumors (50 mg/kg i.p. three times in first week) is reported as ~ 5%. For the same molecule, the “tumor response compared with control group in first week” value with PPC-1 xenograft tumors was “strong tumor regression”. In [3], the “degraded after 1 h incubation in rat plasma preparations (second statement)” value (“degraded after 1 h incubation” below) turned out to be 23%. For the same molecule, in the data set with primary CLL cells, the “LD50 primary CLL sample (first of two, Figure 2D)” value is greater than 30 µM; the “LD50 primary CLL sample (second of two, Supplementary 3B)” value is greater than 30 µM; the “LD50 primary CLL samples (Supplementary Figure 3A)” value is greater than 30 µM.

As for `CC1=C(C2=C(C)C(=O)c3c(cc(O)c(O)c3CC(C)C)C2=O)C(=O)c2cc(O)c(O)c(CC(C)C)c2C1=O` [Compound 6b, 6,6′,7,7′-tetrahydroxy-5,5′-diisobutyl-3,3′-dimethyl-2,2′-binaphthyl-1,1′,4,4′-tetraone], in data set [2], the “tolerability / toxicity of treated mice” value is listed as “no observed toxicity” and the “in vivo activity compared to 6a” value is on record as “superior”. Also, in [4], the “percent of maximum reduction in spleen weight (biological activity)” value is 60-80% and the spleen weight reduction is on record as 30-40%.

`CC1=C(C2=C(C)C(=O)c3c(cc(O)c(O)c3CC3CCCC3)C2=O)C(=O)c2cc(O)c(O)c(CC3CCCC3)c2C1=O` [Compound 6c, 5,5′-bis(cyclopentylmethyl)-6,6′,7,7′-tetrahydroxy-3,3′-dimethyl-2,2′-binaphthyl-1,1′,4,4′-tetraone]: the “LD50 primary CLL samples (Supplementary Figure 3A)” value with primary CLL cells turned out to be 6.5 µM.

For the molecule `CC1=C(C2=C(C)C(=O)c3c(cc(O)c(O)c3CCC3CCCCC3)C2=O)C(=O)c2cc(O)c(O)c(CCC3CCCCC3)c2C1=O` [Compound 6d, 5,5′-bis(2-cyclohexylethyl)-6,6′,7,7′-tetrahydroxy-3,3′-dimethyl-2,2′-binaphthyl-1,1′,4,4′-tetraone], in data set [2], the “tolerability / toxicity of treated mice” value is “no observed toxicity” and the “in vivo activity compared to 6a” value is listed as “superior”.

For the molecule `CC1=C(C2=C(C)C(=O)c3c(cc(O)c(O)c3CCc3ccc(C)cc3)C2=O)C(=O)c2cc(O)c(O)c(CCc3ccc(C)cc3)c2C1=O` [Compound 6f, 6,6′,7,7′-tetrahydroxy-3,3′-dimethyl-5,5′-bis(4-methylphenethyl)-2,2′-binaphthyl-1,1′,4,4′-tetraone], the “binding to Bcl-XL by 2D [15N,1H]-HSQC, qualitative” value (“binding to Bcl-XL by 2D” for short) at Bcl-XL is reported as “strong binding”. For the same molecule, in data set [2], the “tolerability / toxicity of treated mice” value was “no observed toxicity” and the “in vivo activity compared to 6a” value was “superior”. In addition, the signs of toxicity entry in [2] (groups of seven mice, 60 μmol/kg) was “no evident signs of toxicity”. The “tumor response compared with control group in first week” value in the data set with PPC-1 xenograft tumors is recorded as “strong tumor regression”. Besides, the “degraded after 1 h incubation” value in [3] amounted to 14%. In addition, in the data set on primary CLL cells, the “LD50 primary CLL sample (second of two, Supplementary 3B)” value stood at 15 µM.

Consider `CC1=C(C2=C(C)C(=O)c3c(cc(O)c(O)c3Cc3ccccc3)C2=O)C(=O)c2cc(O)c(O)c(Cc3ccccc3)c2C1=O` [Compound 6i, 5,5′-dibenzyl-6,6′,7,7′-tetrahydroxy-3,3′-dimethyl-2,2′-binaphthyl-1,1′,4,4′-tetraone], for which the “binding to Bcl-XL by 2D” value on Bcl-XL was “strong binding”. In addition, in data set [2], the “tolerability / toxicity of treated mice” value is on record as “died” and the “tolerability of treated mice” value is on record as “well tolerated”. For the same molecule, in the data set on PPC-1 xenograft tumors (mouse, in vivo), the “survival of treated mice in first week” value is “died”. In addition, in data set [3], the “degraded after 1 h incubation” value worked out at 5%.

For the molecule `CC1=C(C2=C(C)C(=O)c3c(cc(O)c(O)c3Cc3ccc(Cl)cc3)C2=O)C(=O)c2cc(O)c(O)c(Cc3ccc(Cl)cc3)c2C1=O` [Compound 6l, 5,5′-bis(4-chlorobenzyl)-6,6′,7,7′-tetrahydroxy-3,3′-dimethyl-2,2′-binaphthyl-1,1′,4,4′-tetraone], in [2], the “tolerability / toxicity of treated mice” value is “died” and the “tolerability of treated mice” value is “well tolerated”.

`CC1=C(C2=C(C)C(=O)c3c(cc(O)c(O)c3Cc3ccc(-c4ccccc4)cc3)C2=O)C(=O)c2cc(O)c(O)c(Cc3ccc(-c4ccccc4)cc3)c2C1=O` [Compound 6m, 5,5′-bis(biphenyl-4-ylmethyl)-6,6′,7,7′-tetrahydroxy-3,3′-dimethyl-2,2′-binaphthyl-1,1′,4,4′-tetraone]: on GST–Bcl-XL ΔTM protein, the pIC50 was 6.20 to 6.80.

As for `CC1=C(C2=C(C)C(=O)c3c(cc(O)c(O)c3C(=O)NCC(C)c3ccccc3)C2=O)C(=O)c2cc(O)c(O)c(C(=O)NCC(C)c3ccccc3)c2C1=O` (stereo not shown) [Compound 8a, 6,6′,7,7′-Tetrahydroxy-3,3′-dimethyl-1,1′,4,4′-tetraoxo-N^5,N^5′-bis(2-phenylpropyl)-1,1′,4,4′-tetrahydro-2,2′-binaphthyl-5,5′-dicarboxamide], the “binding to Bcl-XL by 2D” value at Bcl-XL is “strong binding”. The “tolerability / toxicity of treated mice” value in data set [2] was “died”.

With ABT-737, the “cytotoxic activity against BP3 cell lines” value with BP3 cell line is “no cytotoxic activity”.
